Results taken from US20240270720A1, “INDAZOLE YL BENZIMIDAZOLE DERIVATIVE OR PHARMACEUTICALLY ACCEPTABLE SALT THEREOF, AND USE THEREOF” (INDUSTRY-UNIVERSITY COOPERATION FOUNDATION HANYANG …, priority 2021, published 2024).
Where a chain is given by its changes, count along the chain named. Read-outs that look alike come from different tables or passages of the source.

Legend:
FLT3 wild type = target: T1, FLT3 wild type (Homo sapiens, UniProt P36888); assay: Kinase HotSpot radiometric kinase assay (Reaction Biology); assay type: biochemical
T1 construct: purchased Reaction Biology Corp. (Kinase HotSpot service)
T1 sequence (P36888 27-993): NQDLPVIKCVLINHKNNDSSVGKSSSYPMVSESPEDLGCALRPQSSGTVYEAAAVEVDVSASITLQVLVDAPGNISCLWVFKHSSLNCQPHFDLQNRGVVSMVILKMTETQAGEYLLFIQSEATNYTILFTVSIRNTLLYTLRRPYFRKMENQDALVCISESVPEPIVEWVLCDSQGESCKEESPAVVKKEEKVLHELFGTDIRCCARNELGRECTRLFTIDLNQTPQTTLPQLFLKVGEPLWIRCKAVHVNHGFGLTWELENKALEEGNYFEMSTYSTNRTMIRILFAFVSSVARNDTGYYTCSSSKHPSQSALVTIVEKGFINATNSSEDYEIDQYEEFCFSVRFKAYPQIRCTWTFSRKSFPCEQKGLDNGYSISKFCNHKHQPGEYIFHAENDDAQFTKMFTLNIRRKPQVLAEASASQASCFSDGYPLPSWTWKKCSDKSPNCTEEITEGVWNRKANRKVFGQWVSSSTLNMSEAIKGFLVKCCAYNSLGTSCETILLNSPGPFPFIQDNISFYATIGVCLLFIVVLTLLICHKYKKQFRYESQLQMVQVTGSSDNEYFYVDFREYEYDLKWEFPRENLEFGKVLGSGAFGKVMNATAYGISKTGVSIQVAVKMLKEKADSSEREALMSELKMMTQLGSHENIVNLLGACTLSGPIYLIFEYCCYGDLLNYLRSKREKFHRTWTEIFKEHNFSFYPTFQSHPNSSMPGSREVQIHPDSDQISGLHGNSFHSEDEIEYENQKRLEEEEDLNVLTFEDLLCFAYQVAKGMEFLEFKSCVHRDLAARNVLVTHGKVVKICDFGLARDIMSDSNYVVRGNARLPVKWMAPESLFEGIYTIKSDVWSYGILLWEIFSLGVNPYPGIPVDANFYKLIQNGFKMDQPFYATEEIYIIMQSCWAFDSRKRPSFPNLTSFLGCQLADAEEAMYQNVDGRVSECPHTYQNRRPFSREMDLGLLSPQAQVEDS
Procedure: (§1) Reaction Biology Corp. Kinase HotSpot SM service (www.reactionbiology.com) was used to determine IC50 values for all compounds and kinase profiles. The analysis protocol was as follows: In a final reaction volume of 25 μL, a peptide substrate, [[sequence]], 5 μM, ATP 10 μM, and FLT3(h) (5 to 10 mU) were incubated with 25 mM Tris pH 7.5, 0.02 mM EGTA, 0.66 mg/mL myelin basic protein, 10 mM Mg acetate and [γ-33P-ATP] (a concentration of approximately 500 cpm/pmol was required for specific activity). The reaction was initiated by adding the Mg-ATP mixture. After incubation at room temperature for 40 minutes, the reaction was stopped by adding 5 μL of a 3% phosphoric acid solution. Thereafter, 10 μL of the reactant was spotted on a P30 filter mat and washed three times for 5 minutes in 75 mM phosphoric acid and once in methanol before drying and scintillation counting.

FLT3 (D835Y) = target: T2, FLT3 (D835Y) (Homo sapiens, UniProt P36888, D835Y); assay: as above
T2 sequence (P36888 27-993 D835Y): T1 sequence (P36888 27-993) with D809Y
Procedure: as §1

[1] = read-out: FLT3 (D835Y) IC50, Table 1

IC50 (FLT3 wild type; Table 1, read-out: FLT3 IC50) | IC50 (FLT3 (D835Y); [1]) | melting point | IC50 (FLT3 wild type; values given in nM, read-out: IC50 FLT3 wild type) | IC50 (FLT3 (D835Y)) | Compound
409 nM | 131 nM | 154 to 156 °C | – | – | O=C(Nc1ccc2[nH]c(-c3ccc4cn[nH]c4c3)nc2c1)c1cc(N2CCN(C3CC3)CC2)cc(C(F)(F)F)c1 [Compound 8p, N-(2-(1H-indazol-6-yl)-1H-benzo[di]imidazol-5-yl)-3-(4-cyclopropylpiperazin-1-yl)-5-(trifluoromethyl)benzamide]
286 nM | 87 nM | 166 to 168 °C | – | – | CCN1CCC(Nc2cc(C(=O)Nc3ccc4[nH]c(-c5ccc6cn[nH]c6c5)nc4c3)cc(C(F)(F)F)c2)CC1 [Compound 8t, N-(2-(1H-indazol-6-yl)-1H-benzo[di]imidazol-5-yl)-3-((1-ethylpiperidin-4-yl)amino)-5-(trifluoromethyl)benzamide]
145 nM | 42 nM | 255 to 257 °C | – | – | CCN1CCN(Cc2cc(C(=O)Nc3ccc4[nH]c(-c5ccc6cn[nH]c6c5)nc4c3)cc(C(F)(F)F)c2)CC1(C)C [Compound 8y, N-(2-(1H-indazol-6-yl)-1H-benzo[di]imidazol-5-yl)-3-((4-ethyl-3,3-dimethylpiperazine-1-yl)methyl)-5-(trifluoromethyl)benzamide]
– | – | 153 to 154 °C | 65.9 nM | ~10 nM | CCN1CCN(c2cc(C(=O)Nc3ccc4[nH]c(-c5ccc6cn[nH]c6c5)nc4c3)cc(C(F)(F)F)c2)CC1(C)C [Compound 8z, N-(2-(1H-indazol-6-yl)-1H-benzo[di]imidazol-5-yl)-3-(4-ethyl-3,3-dimethylpiperazine-1-yl)-5-(trifluoromethyl)benzamide]
